Laboratory results published in ChEMBL document CHEMBL1201862, “PubChem BioAssay data set” (2004).
The source made the active and inactive calls.

Key:
[1] = Reduced DLD-1 viability, concentration-response, CellTiter-Glo luminescence (AID 1117352); type: functional
[2] = biological target: T1, DNA repair protein RAD52 homolog (Homo sapiens, UniProt P43351); type: functional, biochemical
T1 sequence (P43351 whole entry): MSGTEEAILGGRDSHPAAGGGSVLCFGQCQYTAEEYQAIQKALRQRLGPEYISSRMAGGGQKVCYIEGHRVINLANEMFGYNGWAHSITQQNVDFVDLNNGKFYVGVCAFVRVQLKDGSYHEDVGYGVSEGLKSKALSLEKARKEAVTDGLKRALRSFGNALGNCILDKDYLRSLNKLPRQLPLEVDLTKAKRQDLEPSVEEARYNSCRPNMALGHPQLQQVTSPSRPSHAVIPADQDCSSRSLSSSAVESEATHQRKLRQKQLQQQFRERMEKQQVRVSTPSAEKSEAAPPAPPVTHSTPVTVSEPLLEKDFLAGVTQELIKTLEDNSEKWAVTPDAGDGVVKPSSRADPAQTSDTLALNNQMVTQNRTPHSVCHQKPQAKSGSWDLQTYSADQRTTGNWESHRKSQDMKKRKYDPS

[3] = HCT116 cell viability decrease, GSK3B pretreatment – CellTiter-Glo, IC50, dose response (AID 1117339); type: functional; conditions: HCT-116
[4] = cytotoxicity toward Colo320 cells – cell-based, CellTiter-Glo luminescence, IC50, dose response (AID 1117334); type: functional; conditions: COLO 320
[5] = cytotoxicity toward HCT116 cells – cell-based, CellTiter-Glo luminescence, IC50, dose response (AID 1117332); type: functional; conditions: HCT-116
[6] = cytotoxicity toward HT-29 cells – cell-based, CellTiter-Glo luminescence, IC50, dose response (AID 1117330); type: functional
[7] = CellTiter-Glo luminescence survival assay, SW480 colon tumor line, concentration-response curve, half-maximal inhibitory concentration (AID 1117338); type: functional
[8] = RKO cell viability reduction, dose response, CellTiter-Glo luminescence (AID 1117322); type: functional
[9] = SNU-C1 cell viability reduction, dose response, CellTiter-Glo luminescence (AID 1117323); type: functional, cell-based
[10] = biological target: T2, Ubiquitin-conjugating enzyme E2 N (Homo sapiens, UniProt P61088); type: functional;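 also: Dose-response confirmation in a TR-FRET assay detecting UBC13-driven polyubiquitin chain formation, inhibition measured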
T2 sequence (P61088 whole entry): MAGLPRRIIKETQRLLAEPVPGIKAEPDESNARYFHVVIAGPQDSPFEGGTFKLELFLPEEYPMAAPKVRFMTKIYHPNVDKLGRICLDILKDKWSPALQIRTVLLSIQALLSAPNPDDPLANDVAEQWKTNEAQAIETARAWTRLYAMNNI

[11] = biological target: NAD-dependent protein deacylase sirtuin-5, mitochondrial (Homo sapiens, UniProt Q9NXA8); assay: sirtuin-5 deacylation blockers, concentration series – biochemical, fluorescence imaging, cherry-pick, set 5, dose response (AID 720591);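 also: desuccinylation of succinyl peptide AMC substrate read as fluorescence after trypsin release; potency of inhibitors that lower fluorescence and may act on trypsin instead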
NAD-dependent protein deacylase sirtuin-5, mitochondrial, sequence (Q9NXA8 whole entry, the tested form may be a part): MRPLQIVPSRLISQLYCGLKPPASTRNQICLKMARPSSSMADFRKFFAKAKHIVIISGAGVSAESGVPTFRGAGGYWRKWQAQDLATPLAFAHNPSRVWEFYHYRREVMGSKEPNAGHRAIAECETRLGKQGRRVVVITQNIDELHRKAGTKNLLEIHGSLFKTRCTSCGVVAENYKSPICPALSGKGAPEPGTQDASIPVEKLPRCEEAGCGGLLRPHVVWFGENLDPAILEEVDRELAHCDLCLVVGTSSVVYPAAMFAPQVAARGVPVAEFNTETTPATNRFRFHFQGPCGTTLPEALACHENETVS

[12] = viability loss in CEM21 cells – cell-based, CellTiter-Glo luminescence, cherry-picked, cytotoxicity control for viral fusion inhibitor project, dose response (AID 652042); type: functional;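 also: potency for signal decrease meaning cytotoxicity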
[13] = blockers of HIV-1 envelope-mediated cell-cell fusion – cherry-pick, dose response (AID 652057); type: functional, cell-based
[14] = tested on: Streptococcus; assay: GAS UMAA2166 growth inhibition – luminescence, BacTiterGlo, counter-screen for streptokinase expression inhibitor project, dose response (AID 1915); type: functional, organism-based;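 also: potency for reduction of bacterial viability or growth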
[15] = biological target: T3, Streptokinase A (Streptococcus pyogenes serotype M1, UniProt P10520); assay: viability-normalized secreted streptokinase activity reduction – plasminogen activation absorbance, OD405, dose response (AID 1914); type: functional, Streptococcus pyogenes M1 GAS;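 also: secreted streptokinase activity via plasminogen activation per viability signal from cell pellet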
T3 sequence (P10520 whole entry): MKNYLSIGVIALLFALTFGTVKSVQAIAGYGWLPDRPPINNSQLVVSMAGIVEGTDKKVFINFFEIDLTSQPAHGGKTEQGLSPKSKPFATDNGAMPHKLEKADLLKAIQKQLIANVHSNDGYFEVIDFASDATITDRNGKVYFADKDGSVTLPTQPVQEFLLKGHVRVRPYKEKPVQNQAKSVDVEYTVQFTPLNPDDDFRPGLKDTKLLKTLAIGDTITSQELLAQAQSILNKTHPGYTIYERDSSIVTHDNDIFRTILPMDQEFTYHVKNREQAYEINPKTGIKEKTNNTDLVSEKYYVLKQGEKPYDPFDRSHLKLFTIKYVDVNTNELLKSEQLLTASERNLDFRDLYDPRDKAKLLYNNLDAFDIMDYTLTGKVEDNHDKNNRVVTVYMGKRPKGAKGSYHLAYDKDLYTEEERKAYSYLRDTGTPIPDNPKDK

[16] = off-target signal loss in HeLa-CEM21 co-culture – HeLa F-luc CTL cells, cherry-picked, counter-screen for HIV-1 Env fusion inhibitor project, dose response (AID 652040); type: functional, cell-based;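 also: potency for signal decrease marking cytotoxic or nonspecific inhibition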
[17] = tested on: Streptococcus sp. 'group A'; assay: Streptococcus pyogenes SK(-)GAS viability under kanamycin – luminescence, BacTiterGlo, confirmation, counter-screen for streptokinase expression inhibitor project, dose response (AID 1900); type: functional, organism-based
[18] = blockers of HIV-1 ZM109 envelope-driven cell-cell fusion – HeLa effector, CEM target cells, luciferase, cherry-pick, dose response (AID 652058); type: functional, cell-based;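 also: luciferase signal from HIV-1 Env mediated cell-cell fusion of effector and target cells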
[19] = microbe, parasite or virus in culture; type: functional; conditions: Mycobacterium tuberculosis
[20] = HIV-1 AD8 envelope cell-cell fusion blockers – cherry-pick, dose response (AID 652062); type: functional, cell-based;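 also: luciferase signal from cell-cell fusion driven by HIV-1 clade B AD8 Env; potency is for inhibitors of fusion seen as a drop in luminescence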

CN1CCN(C2Cc3ccccc3Sc3ccc(Cl)cc32)CC1 (stereo not drawn)
IC50 [1]: > 20 µM (inactive) | AC50 [2]: 22.5 µM (active) | IC50 [3]: 8.4 µM (inactive) | IC50 [4]: > 6.67 µM (inactive) | IC50 [5]: 9.17 µM (inactive) | IC50 [6]: 8 µM (inactive) | IC50 [7]: 6.31 µM (inactive) | IC50 [8]: > 20 µM (inactive) | IC50 [9]: 7.87 µM (inactive) | IC50 [10]: > 20 µM (inactive)

COc1cccc(NC(=O)CN(C)CC(=O)Nc2ccc3c(c2)CCC3)c1
AC50 [11]: > 30 µM (inactive)

Cc1ccc(C2Oc3ccccc3C3=C2C(c2cccs2)n2ncnc2N3)cc1 (stereo not drawn)
AC50 [12]: 31.7 µM (active) | AC50 [13]: 9.29 µM (active) | EC50 [14]: 7.1 µM (active) | EC50 [15]: > 150 µM (not active) | AC50 [16]: 14.1 µM (active) | EC50 [17]: 2.7 µM (active)

COc1ccc(NC(=O)N[C@@H](CCSC)C(=O)O)cc1OC
AC50 [11]: > 30 µM (inactive)

Cc1[nH]c2ccc(OC(F)(F)F)cc2c1CCNCc1ccc(Cl)cc1
AC50 [18]: 1.24 µM (active) | AC50 [12]: 9.56 µM (active) | AC50 [13]: 0.838 µM (active) | CC50 [19]: 12.6 µM (active) | AC50 [20]: 5.12 µM (active) | AC50 [16]: 1.71 µM (active)

O=C(Cn1c(=O)oc2ccccc21)Nc1cccc(Cl)c1
AC50 [11]: > 30 µM (inactive)

CCCCCCOC(=O)c1cccnc1
IC50 [1]: > 20 µM (inactive) | IC50 [3]: > 20 µM (inactive) | IC50 [4]: > 20 µM (inactive) | IC50 [5]: > 20 µM (inactive) | IC50 [6]: > 20 µM (inactive) | IC50 [7]: > 20 µM (inactive) | IC50 [8]: > 20 µM (inactive) | IC50 [9]: > 20 µM (inactive)
